Measured values from patent US10111854B2, “Synthesis and use of amine-containing flavonoids as potent anti-leishmanial agents” (The Hong Kong Polytechnic University, priority 2014, dated 2018).
In brackets after ≈: the same amount, converted by molar mass. Where two headings read alike, the source gives them in different places.

Experiments:
[1] = Pharmacokinetics study of FM09, FM09h and FM05b, iv and oral; assay type: in vivo, Balb/c mice; conditions: 50 mg/kg oral
Experimental: Animals were sacrificed at the indicated time point and plasma level of the corresponding flavonoids were determined using LC-MSMS. IC50 of corresponding flavonoids are indicated. Bioavailability (F) was calculated by dividing the dose-adjusted area under curve (AUC) of that of orally-fed over intravenously administered animals.

[2] = system: L. amazonensis promastigotes; test: Mitochondrial membrane potential (rhodamine 123) and survivors (MTS) of promastigotes; assay type: cell-based; conditions: for viability at 10 µM: Leishmania amazonensis, read-out: % of viable cells (MTS)
Experimental: 1×10^7 promastigotes were seeded into each well of 6-well plate. The promastigotes were incubated with different concentrations (0, 1.25, 2.5, 5 and 10 μM) of FM09 for 24 and 48 hr, respectively. After incubation, promastigotes were washed two times with 1×PBS and resuspended with 1000 μL of supplemented Schneider's Insect media containing 10 μg/mL of rhodamine 123 in an Eppendorf. The promastigotes were incubated with rhodamine 123 at room temperature for 40 min with shaking. After incubation, promastigotes were washed one time with cold 1×PBS and then re-suspended with 100 μL of 1×PBS. The fluorescent level of rhodamine 123 was measured with a microplate reader (excitation: 485 nm and emission: 520 nm).
L. amazonensis promastigotes were cultivated in different concentration (0, 1.25, 2.5, 5 and 10 μM) of FM09 for 24 hr or 48 hr. The promastigotes were washed and exposed to rhodamine 123 (10 μg/mL) for 40 min. The level of rhodamine 123 accumulation was measured at 520 nm using 485 nm as an excitation wavelength. 0.2% DMSO was used as a solvent control. The values were presented as mean±standard error of mean.

[3] = system: L. major FV1 promastigotes; test: Anti-promastigote activity (MTS assay), L. major FV1; assay type: cell-based; conditions: Leishmania major, 72 hours
How it was run: (§1)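 Promastigotes (1×10^5 per well) in Schneider's medium pH 6.9 with 10% FBS, exposed to serial compound concentrations for 72 h at 27 °C. Viability by MTS/PMS reduction over 4 h, OD 490 nm; IC50 derived.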

[4] = system: promastigotes (L. amazonensis LV78, L major FV1, L. donovani HU3, L. donovani 39); test: Anti-promastigote activity, strain not given; assay type: cell-based; conditions: Leishmania amazonensis; strain not specified; read-out: IC50 against promastigotes
Experimental: Anti-promastigote activity was determined according to previous procedures (1) by Cell Titer 96® Aqueous Assay (Promega) that employed a tetrazolium compound. Promastigotes were seeded into 96-well flat bottom microtiter plate at 1×10^5 cells per well in a final volume of 100 μL medium and incubated with a series of concentrations of synthetic FM. Parasites were incubated at 27° C. for 72 hours. After 72 hours of incubation, 10 μL of MTS:PMS mixture [MTS:2-(4,5-Dimethylthiazol-2-yl-)-5-[3-(carboxymethoxy)phenyl]-2-(4-sulfophenyl)-2H-tetrazolium); PMS: phenazine methosulfate both purchased from Sigma] was added into each well of microtiter plate. The plate was then incubated at 27° C. for 4 hours for color development. After 4 hours of incubation, the OD values were determined at 490 nm using automatic microtiter plate reader (Bio-Rad).
IC50 values of known antileishmanials and the amine-containing flavonoid monomers of the present invention to promastigotes (L. amazonensis LV78, L major FV1, L. donovani HU3, L. donovani 39), macrophages (Raw 264.7 and PEM) and mouse fibroblast (L929) were determined. The anti-promastigotes activities and cytotoxicity of the amine-containing flavonoid monomers of the invention are shown in Table 1.

[5] = system: L. amazonensis LV78 promastigotes; test: Anti-promastigote activity (MTS assay), L. amazonensis LV78; assay type: cell-based; conditions: Leishmania amazonensis, 72 hours
How it was run: as §1

[6] = system: L. amazonensis; conditions: cutaneous leishmaniasis murine model; cited from earlier work
[7] = Water solubility; assay type: physicochemical
From the text: In terms of physicochemical properties, all flavonoid monomers listed as active against either L. amazonensis (Table 3A) or L. donovani (Table 3B) are smaller than 39, and have fewer H-bond donors and acceptors. They also have a lower calculated ACDLogP (1.978 to 4.537) than 39 (5.104), except FM05 (5.011), FM17 (5.101) and FM19 (5.451). The lower ACDLogP values mean more water soluble; better partition between hydrophilic and hydrophobic phases and potentially easier to be absorbed orally. Indeed, these flavonoid monomers are highly water soluble (up to about 40 mg/mL of the hydrochloride salt) whereas 39 is not (up to about 4 mg/ml).

[8] = system: L. donovani (LdAG83) promastigotes; test: Anti-promastigote activity, wild type L. donovani LdAG83; assay type: cell-based; conditions: Leishmania donovani; printed in HU3 column; footnote *: wild type LdAG83 used instead of HU3
[9] = Bioavailability study of flavonoid dimer 39, oral feeding vs i.v.; assay type: in vivo, Balb/c mice; conditions: in 50% PEG, 30 minutes
Experimental: Amine-linked flavonoid dimers are disclosed in prior studies to be sparingly soluble in aqueous medium. Their poor oral bioavailability is confirmed by in vivo study in mice. […] Plasma concentration of 39 was determined 30 minutes after oral feeding or i.v. administration. […] Such low bioavailability precluded 39 from being used as an oral antileishmanial agent in the future.

In the case of `O=c1cc(-c2ccc(OCCOCCN(Cc3ccccn3)Cc3ccccn3)cc2)oc2ccccc12` [FM09, 2-(4-(2-(2-(bis(pyridin-2-ylmethyl)amino)ethoxy)ethoxy)phenyl)-4H-chromen-4-one], the “Clearance from plasma after oral feeding” value [1] is reported as “rapidly cleared”, the bioavailability ([1]; Balb/c, mouse, plasma, 10 mg/kg iv, dose-adjusted AUC oral over iv, read-out: Bioavailability (F)) is reported as 14% and the “Mitochondrial potential (rhodamine 123 accumulation)” value ([2]; 0-10 μM, 24 hr and 48 hr, dose-dependent) is reported as “drop of mitochondrial potential”. The “% of survivors (MTS)” value ([2]; 1.25 μM, 24 hr and 48 hr) was “about 100%”, the “% of survivors (MTS)” value ([2]; 2.5 μM, 24 hr and 48 hr) was “about 100%” and the “% of survivors (MTS)” value ([2]; 5 μM, 24 hr) was 68%. For the same compound, the “% of survivors (MTS)” value ([2]; 5 μM, 48 hr) was 88%, the viability at 10 µM ([2]; 24 hr) was 29% and the viability at 10 µM ([2]; 48 hr) was 23%. It also gave an IC50 [3] of 800 ± 100 nM, an IC50 [4] of less than 5000 nM and an IC50 [5] of 1000 ± 300 nM.

For `O=c1cc(-c2ccc(OCCOCCN(CCOCCOc3ccc(-c4cc(=O)c5ccccc5o4)cc3)Cc3ccncc3)cc2)oc2ccccc12` [compound 39], the “Foot pad lesion size” value [6] is given as “effective in reducing foot pad lesion size”, the solubility [7] is given as roughly 4000 µg/mL (≈ 5.52 mM) and the IC50 [8] is given as 200 ± 30 nM. For the same compound, the “Plasma level after oral feeding relative to i.v. group” value [9] was less than 1%.
